Laboratory results from US20080249156A1, “Combinations of statins and anti-obesity agent and glitazones” (priority 2007, published 2008).
Read-outs that look alike come from different tables or passages of the source.

What was measured:
[1] = not given; remark: listed apart in the source
[2] = Example 1, patient on rosiglitazone 4 mg once a day
[3] = Example 2, patient on rosiglitazone 4 mg twice a day and metformin 500 mg twice daily
[4] = Example 3, patient on rosiglitazone 8 mg once daily and metformin 500 mg once daily

CN(CCOc1ccc(CC2SC(=O)NC2=O)cc1)c1ccccn1 (stereo not drawn) [rosiglitazone]
increase: body weight since beginning the rosiglitazone therapy [2] | body weight since beginning the rosiglitazone therapy [3] | body weight since beginning the rosiglitazone therapy [4] | total cholesterol since beginning the rosiglitazone therapy [1, 2] | total cholesterol since beginning the rosiglitazone therapy [1, 3] | total cholesterol since beginning the rosiglitazone therapy [1, 4]
